Reference: BindingDB's records for doi:10.1124/jpet.102.047092 (Case Western Reserve University, 2003)

How the values were obtained:
[1] = molecular target: Metabotropic glutamate receptor 6 (Rattus norvegicus, UniProt P35349)
[2] = molecular target: Metabotropic glutamate receptor 8 (Rattus norvegicus, UniProt P70579)
Nischarin = Nischarin (Rattus norvegicus, UniProt Q4G017)
Histamine H2 receptor = Histamine H2 receptor (Homo sapiens, UniProt P25021)
[3] = molecular target: Neuronal acetylcholine receptor subunit alpha-3 (Homo sapiens, UniProt P32297)
[4] = molecular target: Metabotropic glutamate receptor 5 (Rattus norvegicus, UniProt P31424)
[5] = molecular target: Metabotropic glutamate receptor 4 (Rattus norvegicus, UniProt P31423)
Histamine H4 receptor = Histamine H4 receptor (Homo sapiens, UniProt Q9H3N8)
[6] = molecular target: Metabotropic glutamate receptor 1 (Rattus norvegicus, UniProt P23385)
[7] = molecular target: Neuronal acetylcholine receptor subunit alpha-4 (Rattus norvegicus, UniProt P09483)
[8] = molecular target: Neuronal acetylcholine receptor subunit alpha-4 (Homo sapiens, UniProt P43681)
[9] = molecular target: Neuronal acetylcholine receptor subunit alpha-2 (Homo sapiens, UniProt Q15822)
[10] = molecular target: Metabotropic glutamate receptor 2 (Rattus norvegicus) (UniProt P31421)
[11] = molecular target: Voltage-dependent L-type calcium channel subunit alpha-1C (Rattus norvegicus, UniProt P22002)
[12] = molecular target: Beta-1 adrenergic receptor (Rattus norvegicus, UniProt P18090)
Histamine H1 receptor = Histamine H1 receptor (Homo sapiens, UniProt P35367)
Cannabinoid receptor 1 = Cannabinoid receptor 1 (Rattus norvegicus, UniProt P20272)

Chain of Metabotropic glutamate receptor 6 (P35349 whole entry): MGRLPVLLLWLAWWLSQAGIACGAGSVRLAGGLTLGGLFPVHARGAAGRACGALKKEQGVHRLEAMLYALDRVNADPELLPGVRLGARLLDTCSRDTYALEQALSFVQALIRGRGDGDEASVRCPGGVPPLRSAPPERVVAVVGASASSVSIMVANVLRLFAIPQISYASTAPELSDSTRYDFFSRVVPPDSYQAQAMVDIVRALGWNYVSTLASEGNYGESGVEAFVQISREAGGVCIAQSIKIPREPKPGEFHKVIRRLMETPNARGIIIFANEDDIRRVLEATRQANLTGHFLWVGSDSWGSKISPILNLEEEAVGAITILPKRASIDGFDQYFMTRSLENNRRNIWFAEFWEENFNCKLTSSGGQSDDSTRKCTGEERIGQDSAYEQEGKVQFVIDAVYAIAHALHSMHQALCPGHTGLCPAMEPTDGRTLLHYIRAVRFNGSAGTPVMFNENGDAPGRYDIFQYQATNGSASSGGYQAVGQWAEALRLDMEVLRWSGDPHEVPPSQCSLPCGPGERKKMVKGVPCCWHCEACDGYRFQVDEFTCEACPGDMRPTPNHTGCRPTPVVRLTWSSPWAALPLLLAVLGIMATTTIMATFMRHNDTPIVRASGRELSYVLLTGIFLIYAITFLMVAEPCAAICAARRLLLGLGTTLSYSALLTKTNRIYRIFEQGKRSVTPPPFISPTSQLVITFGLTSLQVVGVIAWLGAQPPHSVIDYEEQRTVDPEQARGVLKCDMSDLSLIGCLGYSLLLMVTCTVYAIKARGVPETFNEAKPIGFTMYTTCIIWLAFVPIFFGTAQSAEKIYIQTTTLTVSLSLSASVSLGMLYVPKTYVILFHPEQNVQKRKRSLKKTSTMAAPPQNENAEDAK
Chain of Metabotropic glutamate receptor 8 (P70579 whole entry): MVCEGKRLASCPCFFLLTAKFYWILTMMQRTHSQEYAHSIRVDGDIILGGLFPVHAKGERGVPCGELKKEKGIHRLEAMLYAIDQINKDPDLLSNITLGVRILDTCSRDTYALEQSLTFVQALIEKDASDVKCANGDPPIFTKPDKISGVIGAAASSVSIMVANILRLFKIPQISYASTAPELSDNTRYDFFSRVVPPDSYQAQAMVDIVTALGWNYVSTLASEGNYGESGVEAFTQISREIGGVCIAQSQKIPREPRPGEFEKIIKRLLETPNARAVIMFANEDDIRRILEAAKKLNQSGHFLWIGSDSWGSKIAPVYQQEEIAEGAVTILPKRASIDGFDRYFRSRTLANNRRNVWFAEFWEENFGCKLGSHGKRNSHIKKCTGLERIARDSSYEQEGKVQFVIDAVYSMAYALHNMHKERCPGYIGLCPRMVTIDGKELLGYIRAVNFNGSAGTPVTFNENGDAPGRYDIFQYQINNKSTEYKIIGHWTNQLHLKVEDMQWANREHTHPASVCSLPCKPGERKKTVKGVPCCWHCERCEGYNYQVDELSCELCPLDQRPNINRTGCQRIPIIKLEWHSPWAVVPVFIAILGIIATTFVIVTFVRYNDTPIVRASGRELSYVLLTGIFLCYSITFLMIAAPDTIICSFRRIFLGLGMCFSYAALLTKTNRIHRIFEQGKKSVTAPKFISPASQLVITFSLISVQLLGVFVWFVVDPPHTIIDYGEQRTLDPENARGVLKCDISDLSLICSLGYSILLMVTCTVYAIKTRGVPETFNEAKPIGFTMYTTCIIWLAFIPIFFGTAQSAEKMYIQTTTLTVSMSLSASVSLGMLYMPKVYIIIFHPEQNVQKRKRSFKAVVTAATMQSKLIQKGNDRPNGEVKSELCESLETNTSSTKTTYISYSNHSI
Chain of Voltage-dependent L-type calcium channel subunit alpha-1C (P22002 whole entry): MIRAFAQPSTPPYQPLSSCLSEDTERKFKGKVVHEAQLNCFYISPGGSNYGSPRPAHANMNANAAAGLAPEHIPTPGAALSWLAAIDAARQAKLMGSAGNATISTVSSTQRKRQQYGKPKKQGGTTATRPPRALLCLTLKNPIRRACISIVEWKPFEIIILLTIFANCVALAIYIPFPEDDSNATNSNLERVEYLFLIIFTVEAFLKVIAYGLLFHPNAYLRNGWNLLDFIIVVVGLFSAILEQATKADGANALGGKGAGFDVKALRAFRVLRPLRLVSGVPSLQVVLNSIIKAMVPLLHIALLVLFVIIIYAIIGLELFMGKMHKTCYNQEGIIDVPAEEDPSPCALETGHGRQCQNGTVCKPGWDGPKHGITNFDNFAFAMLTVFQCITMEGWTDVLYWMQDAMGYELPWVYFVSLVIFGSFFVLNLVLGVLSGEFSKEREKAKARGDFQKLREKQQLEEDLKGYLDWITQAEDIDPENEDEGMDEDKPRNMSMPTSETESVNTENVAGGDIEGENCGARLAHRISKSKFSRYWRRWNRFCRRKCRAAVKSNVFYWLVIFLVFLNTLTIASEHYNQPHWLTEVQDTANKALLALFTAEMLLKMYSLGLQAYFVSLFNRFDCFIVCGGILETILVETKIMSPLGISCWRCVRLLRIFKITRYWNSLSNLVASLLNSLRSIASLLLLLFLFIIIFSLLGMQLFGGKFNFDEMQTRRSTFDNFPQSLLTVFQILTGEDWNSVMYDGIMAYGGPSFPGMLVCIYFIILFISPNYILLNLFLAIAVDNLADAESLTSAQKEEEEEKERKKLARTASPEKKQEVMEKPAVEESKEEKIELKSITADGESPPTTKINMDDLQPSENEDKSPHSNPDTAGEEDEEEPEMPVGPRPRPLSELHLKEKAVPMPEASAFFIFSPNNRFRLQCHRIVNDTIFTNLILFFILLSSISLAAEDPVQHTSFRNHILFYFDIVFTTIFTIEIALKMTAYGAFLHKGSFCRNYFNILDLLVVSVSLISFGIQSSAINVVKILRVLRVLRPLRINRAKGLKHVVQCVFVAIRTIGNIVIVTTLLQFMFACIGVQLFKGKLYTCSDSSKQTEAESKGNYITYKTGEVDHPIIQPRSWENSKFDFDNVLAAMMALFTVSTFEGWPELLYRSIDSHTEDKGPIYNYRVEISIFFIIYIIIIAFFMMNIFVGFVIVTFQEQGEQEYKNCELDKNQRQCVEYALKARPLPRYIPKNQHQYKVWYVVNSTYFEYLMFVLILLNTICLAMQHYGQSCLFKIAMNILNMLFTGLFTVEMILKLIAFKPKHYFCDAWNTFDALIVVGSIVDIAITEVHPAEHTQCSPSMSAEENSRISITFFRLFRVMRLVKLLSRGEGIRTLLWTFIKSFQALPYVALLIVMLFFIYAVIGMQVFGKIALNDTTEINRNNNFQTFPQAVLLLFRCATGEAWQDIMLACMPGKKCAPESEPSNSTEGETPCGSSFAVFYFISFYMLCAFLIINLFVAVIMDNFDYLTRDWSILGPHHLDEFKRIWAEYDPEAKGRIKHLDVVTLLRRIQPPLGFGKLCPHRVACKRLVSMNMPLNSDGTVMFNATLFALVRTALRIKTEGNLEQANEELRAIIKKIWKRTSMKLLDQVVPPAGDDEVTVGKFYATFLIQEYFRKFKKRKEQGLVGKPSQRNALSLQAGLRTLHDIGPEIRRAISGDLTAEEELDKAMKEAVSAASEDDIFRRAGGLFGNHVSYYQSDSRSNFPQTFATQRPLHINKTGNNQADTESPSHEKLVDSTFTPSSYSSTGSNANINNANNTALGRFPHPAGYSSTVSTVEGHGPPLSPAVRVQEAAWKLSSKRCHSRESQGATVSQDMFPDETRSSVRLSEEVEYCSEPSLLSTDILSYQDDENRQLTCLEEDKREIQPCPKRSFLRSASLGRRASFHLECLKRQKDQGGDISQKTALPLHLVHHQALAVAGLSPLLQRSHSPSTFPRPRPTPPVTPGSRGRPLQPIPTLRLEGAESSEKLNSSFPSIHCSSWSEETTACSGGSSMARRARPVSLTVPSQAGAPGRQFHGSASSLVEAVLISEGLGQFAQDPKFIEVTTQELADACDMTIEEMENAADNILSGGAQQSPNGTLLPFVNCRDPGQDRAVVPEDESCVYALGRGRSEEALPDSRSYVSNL
Chain of Neuronal acetylcholine receptor subunit alpha-4 (Rattus norvegicus, UniProt P09483) (P09483 whole entry): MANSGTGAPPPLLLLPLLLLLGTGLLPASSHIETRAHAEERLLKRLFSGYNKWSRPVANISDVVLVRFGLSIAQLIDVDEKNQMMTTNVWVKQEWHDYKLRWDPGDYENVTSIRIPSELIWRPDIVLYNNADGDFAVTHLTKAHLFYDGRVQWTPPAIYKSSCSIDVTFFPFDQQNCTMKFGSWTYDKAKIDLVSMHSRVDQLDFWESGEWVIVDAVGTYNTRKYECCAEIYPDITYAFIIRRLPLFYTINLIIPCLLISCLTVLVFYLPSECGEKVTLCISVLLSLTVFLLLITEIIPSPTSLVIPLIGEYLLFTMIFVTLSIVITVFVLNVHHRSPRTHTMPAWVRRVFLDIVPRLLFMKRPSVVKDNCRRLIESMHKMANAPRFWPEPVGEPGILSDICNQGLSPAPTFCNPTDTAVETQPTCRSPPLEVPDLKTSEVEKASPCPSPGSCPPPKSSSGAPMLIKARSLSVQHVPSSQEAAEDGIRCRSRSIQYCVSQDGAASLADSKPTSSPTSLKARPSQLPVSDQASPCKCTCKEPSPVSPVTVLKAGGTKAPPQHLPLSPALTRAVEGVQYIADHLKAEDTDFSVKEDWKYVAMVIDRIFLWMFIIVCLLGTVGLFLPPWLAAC
Chain of Neuronal acetylcholine receptor subunit alpha-3 (P32297 whole entry): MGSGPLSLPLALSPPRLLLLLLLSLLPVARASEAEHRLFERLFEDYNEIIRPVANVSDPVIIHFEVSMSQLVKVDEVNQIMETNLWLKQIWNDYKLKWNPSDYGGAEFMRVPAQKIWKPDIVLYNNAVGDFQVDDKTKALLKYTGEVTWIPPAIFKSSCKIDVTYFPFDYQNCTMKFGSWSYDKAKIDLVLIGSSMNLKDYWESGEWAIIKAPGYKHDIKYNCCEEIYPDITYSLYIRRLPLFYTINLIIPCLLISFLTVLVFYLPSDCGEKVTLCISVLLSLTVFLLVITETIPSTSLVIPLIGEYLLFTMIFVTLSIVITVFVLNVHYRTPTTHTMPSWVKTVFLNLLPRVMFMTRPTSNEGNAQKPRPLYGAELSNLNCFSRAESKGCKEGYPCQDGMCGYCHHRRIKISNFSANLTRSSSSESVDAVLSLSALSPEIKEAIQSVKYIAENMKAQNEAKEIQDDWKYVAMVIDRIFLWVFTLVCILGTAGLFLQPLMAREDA

Row | Compound | EC50 [1] [µM] | EC50 [2] [µM] | Ki (Nischarin) [µM] | Ki (Histamine H2 receptor) [µM] | Ki [3] [µM] | EC50 [4] [µM] | EC50 [5] [µM] | Ki (Histamine H4 receptor) [µM] | EC50 [6] [µM] | Ki [7] [µM] | Ki [8] [µM] | Ki [9] [µM] | EC50 [10] [µM] | Ki [11] [µM] | Ki [12] [µM] | Ki (Histamine H1 receptor) [µM] | Ki (Cannabinoid receptor 1) [µM]
1 | N[C@@H](CCP(=O)(O)O)C(=O)O | 0.398 | 1.26 | – | – | – | – | – | – | – | – | – | – | – | – | – | – | –
2 | N[C@@H](CCS(=O)(=O)O)C(=O)O [L-homocysteic acid] | 7.94 | > 10 | > 10 | > 10 | > 10 | 6.31 | > 10 | > 10 | > 10 | > 10 | > 10 | > 10 | > 10 | > 10 | > 10 | > 10 | > 10
